Experimental data taken from US20110136916A1, “6-SHOGAOL FOR USING IN A METHOD FOR THE TREATMENT OF LEUKEMIA” (China Pharmaceutical University, priority 2009, published 2011).
Read-outs that look alike come from different tables or passages of the source.

How the values were obtained:
melanoma SK-MEL-2 cells = settings: cited from earlier work
[1] = tested on: human acute myelocytic leukemia cell U937; assay: MTT anti-proliferation, U937; format: cell-based; settings: for IC50: U937, MTT, n = 3; for growth inhibition (activities of cells vs control): U937, 1-20 μM
Protocol: (§1) Cells in logarithmic growth phase were collected and then inoculated in 1˜2×10^4 cells/well in a 96-well plate respectively according to the sizes of cells and whether they attached to the wall, the cells were centrifuged and the supernatant was removed after growing for 24 hours, and then drug administration was carried out according to the groups as below: the drug group and the drug free group were set up for tumor cells (the concentrations ranged from 1˜20 μM), 5 or 6 duplicates were set for each group and the cells were incubated for 24 or 72 hours. The supernatant was removed and 100 μl serum free culture solution containing 0.5 mg/ml MTT (tetrazolium) was added for further incubation for 4 hours, subsequently 100 μl DMSO (dimethyl sulfoxide) was added and the plate was kept on the micro-shaker for 10 minutes, and the OD value was determined on a micro-plate reader at the wavelength of 570 nm. Evaluations on the toxicity were carried out on normal human cell line LO-2 and each test was repeated for three times.

[2] = cited from earlier work
[3] = tested on: human acute T cell leukemic cell Jurkat; assay: MTT anti-proliferation, Jurkat; format: cell-based; settings: for growth inhibition (activities of cells vs control): 1-20 μM; for IC50: MTT
Protocol: as §1

[4] = tested on: peripheral blood lymphocytes (PBMC) of clinical leukemia patients; assay: Annexin V/PI apoptosis of PBMC from leukemia patients; format: cell-based, human; settings: 24 hours
Protocol: After application by the research group and approval by the Ethics Committee of the hospital, the leukemia patients (healthy volunteers) signed the informed consent and their fresh blood was collected and transferred into heparin anticoagulation tubes, then the same volume of serum free D-Hank buffer (preheated at 37° C.) was added to re-suspend the cells, and the suspension was added to the pre-laid human lymphocyte separating medium (preheated at 37° C.), and the volume ratio between the lymphocyte separating medium and the cell suspension should be no lower than 1:1, and the mixture was centrifuged at room temperature (20-30° C.) at 500×g by a horizontal centrifuge for 30 minutes. The upper layer plasma was removed and the white fog layer in the middle was carefully collected and transferred to 5 mL (or 1-2 times of the volume) PBS (or serum free buffer for cell culture), then it was centrifuged at 200×g or 1000 rpm for 10 minutes at room temperature (20-30° C.), and the supernatant was removed, and the obtained precipitation was the peripheral blood lymphocytes (PBMC). The cells were rinsed twice according to the above-mentioned operations at 500×g by the horizontal centrifuge for 10 minutes at room temperature (20-30° C.), subsequently the cells were collected and their cell vitality was detected by using dye exclusion method for living cells (Trypan blue).
The cells were added to a 24-well plate in 3×10^5 cells/mL/well and different concentrations of 6-shogaol (10 and 20 μM) for treatment for 24 hours after they were incubated for 24 hours. Negative control group (the group without drug) and the treatment group with 6-shogaol were set up for PBMCs from different individuals respectively. After the cells were treated with 6-shogaol for 24 hours, they were transferred into 10 mL glass centrifuge tubes and centrifuged at 500 rpm (or 100×g) for 5 minutes to remove the supernatant. The cells were then rinsed with 0.01 M PBS at 500 rpm (or 100×g) for 5 minutes twice. Subsequently, after adding binding solution and staining according to the directions for use of Annexin V/PI double staining kit (BD Company), flow cytometry analysis (Becton Dickinson FACScan Flow Cytometer) was carried out. The FACS data were analyzed by professional operators of the flow cytometer by using FLOWJO software (Tree Star, Calif.) software, the apoptotic rate was counted by the sum of early apoptosis and late apoptosis, and the results were shown in Table 4 and Table 5.

[5] = tested on: human chronic granulocytic leukemia K562; assay: MTT anti-proliferation, K562; format: cell-based; settings: for IC50: K562, MTT, n = 3; for growth inhibition (activities of cells vs control): K562, 1-20 μM
Protocol: as §1

[6] = tested on: colon carcinoma HCT15 cells; settings: cited from earlier work
[7] = 24 hours, read-out: Mean IC50 after 24 hours
[8] = 72 hours, read-out: Mean IC50 after 72 hours

## CCCCC/C=C/C(=O)CCc1ccc(O)c(OC)c1 [6-shogaol]
Melanoma SK-MEL-2 cells
  anti-tumor activities: certain anti-tumor activities
[1]; Homo sapiens, U-937, 24 h, 24 hours, read-out: Mean IC50 after 24 hours
  IC50: < 10 µM
[1]; Homo sapiens, U-937, 72 h, 72 hours, read-out: Mean IC50 after 72 hours
  IC50: < 5 µM
[1]; 24 hours, FIG. 4
  growth inhibition (activities of cells vs control): significantly decreased
[1]; 72 hours, FIG. 8
  growth inhibition (activities of cells vs control): significantly decreased
[1]; [7]
  IC50: 7.63 ± 0.47 µM
[1]; [8]
  IC50: 4.93 ± 0.7 µM
[2]; ethanol
  solubility in ethanol: soluble
[2]; water
  solubility in water: insoluble
[3]; 24 hours, FIG. 3
  growth inhibition (activities of cells vs control): significantly decreased
[3]; 72 hours, FIG. 7
  growth inhibition (activities of cells vs control): significantly decreased
[3]; Homo sapiens, 24 h, 24 hours, n = 3, read-out: Mean IC50 after 24 hours
  IC50: < 10 µM
[3]; Homo sapiens, 72 h, 72 hours, n = 3, read-out: Mean IC50 after 72 hours
  IC50: < 5 µM
[3]; 24 hours, n = 3, read-out: Mean IC50 after 24 hours
  IC50: 5.6 ± 0.4 µM
[3]; 72 hours, n = 3, read-out: Mean IC50 after 72 hours
  IC50: 3.3 ± 0.3 µM
[4]; 30 cases of leukemia patients, 10 and 20 μM
  induction of apoptosis of PBMC of leukemia patients (t-test): significantly induce the apoptosis
[4]; PBMC of patient P1, 10 μM
  Apoptotic rate of 10 μM 6-shogaol: 38.5 ± 3.7a %
[4]; PBMC of patient P1, 20 μM
  Apoptotic rate of 20 μM 6-shogaol: 56.9 ± 2.2a %
[4]; PBMC of patient P2, 10 μM
  Apoptotic rate of 10 μM 6-shogaol: 27.6 ± 1.3a %
[4]; PBMC of patient P2, 20 μM
  Apoptotic rate of 20 μM 6-shogaol: 50.1 ± 5.4a %
[4]; PBMC of patient P3, 10 μM
  Apoptotic rate of 10 μM 6-shogaol: 47.9 ± 1.6a %
[4]; PBMC of patient P3, 20 μM
  Apoptotic rate of 20 μM 6-shogaol: 72.9 ± 3.1a %
[4]; PBMC of patient P4, 10 μM
  Apoptotic rate of 10 μM 6-shogaol: 35.7 ± 3.8a %
[4]; PBMC of patient P4, 20 μM
  Apoptotic rate of 20 μM 6-shogaol: 69.7 ± 1.6a %
[4]; PBMC of patient P5, 10 μM
  Apoptotic rate of 10 μM 6-shogaol: 40.5 ± 6.1a %
[4]; PBMC of patient P5, 20 μM
  Apoptotic rate of 20 μM 6-shogaol: 61.9 ± 4.2a %
[4]; PBMC of patient P6, 10 μM
  Apoptotic rate of 10 μM 6-shogaol: 29.3 ± 1.7a %
[4]; PBMC of patient P6, 20 μM
  Apoptotic rate of 20 μM 6-shogaol: 52.7 ± 2.3a %
[4]; PBMC of patient P7, 10 μM
  Apoptotic rate of 10 μM 6-shogaol: 44.6 ± 3.8a %
[4]; PBMC of patient P7, 20 μM
  Apoptotic rate of 20 μM 6-shogaol: 75.9 ± 1.7a %
[4]; PBMC of patient P8, 10 μM
  Apoptotic rate of 10 μM 6-shogaol: 31.3 ± 2.7a %
[4]; PBMC of patient P8, 20 μM
  Apoptotic rate of 20 μM 6-shogaol: 64.7 ± 2.4a %
[4]; PBMC of patient P9, 10 μM
  Apoptotic rate of 10 μM 6-shogaol: 27.5 ± 2.9a %
[4]; PBMC of patient P9, 20 μM
  Apoptotic rate of 20 μM 6-shogaol: 44.8 ± 3.9a %
[4]; PBMC of patient P10, 10 μM
  Apoptotic rate of 10 μM 6-shogaol: 42.4 ± 3.1a %
[4]; PBMC of patient P10, 20 μM
  Apoptotic rate of 20 μM 6-shogaol: 73.5 ± 3.7a %
[4]; PBMC of patient P11, 10 μM
  Apoptotic rate of 10 μM 6-shogaol: 29.7 ± 2.4a %
[4]; PBMC of patient P11, 20 μM
  Apoptotic rate of 20 μM 6-shogaol: 50.1 ± 3.3ac %
[4]; PBMC of patient P12, 10 μM
  Apoptotic rate of 10 μM 6-shogaol: 49.3 ± 4.1a %
[4]; PBMC of patient P12, 20 μM
  Apoptotic rate of 20 μM 6-shogaol: 80.8 ± 5.1ac %
[4]; PBMC of patient P13, 10 μM
  Apoptotic rate of 10 μM 6-shogaol: 55.9 ± 2.7a %
[4]; PBMC of patient P13, 20 μM
  Apoptotic rate of 20 μM 6-shogaol: 82.9 ± 2.5ac %
[4]; PBMC of patient P14, 10 μM
  Apoptotic rate of 10 μM 6-shogaol: 26.7 ± 1.9a %
[4]; PBMC of patient P14, 20 μM
  Apoptotic rate of 20 μM 6-shogaol: 39.7 ± 2.6ac %
[4]; PBMC of patient P15, 10 μM
  Apoptotic rate of 10 μM 6-shogaol: 34.5 ± 3.1a %
[4]; PBMC of patient P15, 20 μM
  Apoptotic rate of 20 μM 6-shogaol: 47.9 ± 4.2ab %
[4]; PBMC of patient P16, 10 μM
  Apoptotic rate of 10 μM 6-shogaol: 39.3 ± 2.3a %
[4]; PBMC of patient P16, 20 μM
  Apoptotic rate of 20 μM 6-shogaol: 46.7 ± 1.6ab %
[4]; PBMC of patient P17, 10 μM
  Apoptotic rate of 10 μM 6-shogaol: 44.6 ± 3.8a %
[4]; PBMC of patient P17, 20 μM
  Apoptotic rate of 20 μM 6-shogaol: 55.9 ± 1.7ab %
[4]; PBMC of patient P18, 10 μM
  Apoptotic rate of 10 μM 6-shogaol: 33.1 ± 3.7a %
[4]; PBMC of patient P18, 20 μM
  Apoptotic rate of 20 μM 6-shogaol: 54.7 ± 2.6ac %
[4]; PBMC of patient P19, 10 μM
  Apoptotic rate of 10 μM 6-shogaol: 37.9 ± 4.9a %
[4]; PBMC of patient P19, 20 μM
  Apoptotic rate of 20 μM 6-shogaol: 51.8 ± 7.9ac %
[4]; PBMC of patient P20, 10 μM
  Apoptotic rate of 10 μM 6-shogaol: 52.9 ± 2.7a %
[4]; PBMC of patient P20, 20 μM
  Apoptotic rate of 20 μM 6-shogaol: 63.6 ± 1.2ab %
[4]; PBMC of patient P21, 10 μM
  Apoptotic rate of 10 μM 6-shogaol: 31.5 ± 4.3a %
[4]; PBMC of patient P21, 20 μM
  Apoptotic rate of 20 μM 6-shogaol: 44.5 ± 2.4ab %
[4]; PBMC of patient P22, 10 μM
  Apoptotic rate of 10 μM 6-shogaol: 20.5 ± 3.1a %
[4]; PBMC of patient P22, 20 μM
  Apoptotic rate of 20 μM 6-shogaol: 38.5 ± 2.1ac %
[4]; PBMC of patient P23, 10 μM
  Apoptotic rate of 10 μM 6-shogaol: 36.2 ± 5.7a %
[4]; PBMC of patient P23, 20 μM
  Apoptotic rate of 20 μM 6-shogaol: 67.1 ± 3.7ac %
[4]; PBMC of patient P24, 10 μM
  Apoptotic rate of 10 μM 6-shogaol: 42.7 ± 2.4a %
[4]; PBMC of patient P24, 20 μM
  Apoptotic rate of 20 μM 6-shogaol: 58.7 ± 3.9ac %
[4]; PBMC of patient P25, 10 μM
  Apoptotic rate of 10 μM 6-shogaol: 47.8 ± 2.9a %
[4]; PBMC of patient P25, 20 μM
  Apoptotic rate of 20 μM 6-shogaol: 69.1 ± 3.3ac %
[4]; PBMC of patient P26, 10 μM
  Apoptotic rate of 10 μM 6-shogaol: 43.3 ± 4.9a %
[4]; PBMC of patient P26, 20 μM
  Apoptotic rate of 20 μM 6-shogaol: 56.9 ± 5.2ac %
[4]; PBMC of patient P27, 10 μM
  Apoptotic rate of 10 μM 6-shogaol: 30.9 ± 1.7a %
[4]; PBMC of patient P27, 20 μM
  Apoptotic rate of 20 μM 6-shogaol: 47.6 ± 3.6ab %
[4]; PBMC of patient P28, 10 μM
  Apoptotic rate of 10 μM 6-shogaol: 39.6 ± 2.2a %
[4]; PBMC of patient P28, 20 μM
  Apoptotic rate of 20 μM 6-shogaol: 56.3 ± 3.8ac %
[4]; PBMC of patient P29, 10 μM
  Apoptotic rate of 10 μM 6-shogaol: 33.7 ± 3.5a %
[4]; PBMC of patient P29, 20 μM
  Apoptotic rate of 20 μM 6-shogaol: 42.4 ± 2.9ab %
[4]; PBMC of patient P30, 10 μM
  Apoptotic rate of 10 μM 6-shogaol: 28.6 ± 2.9a %
[4]; PBMC of patient P30, 20 μM
  Apoptotic rate of 20 μM 6-shogaol: 51.9 ± 4.2ac %
[5]; Homo sapiens, K562, 24 h, 24 hours, read-out: Mean IC50 after 24 hours
  IC50: < 10 µM
[5]; Homo sapiens, K562, 72 h, 72 hours, read-out: Mean IC50 after 72 hours
  IC50: < 5 µM
[5]; 24 hours, FIG. 5
  growth inhibition (activities of cells vs control): significantly decreased
[5]; 72 hours, FIG. 9
  growth inhibition (activities of cells vs control): significantly decreased
[5]; [7]
  IC50: 8.5 ± 0.8 µM
[5]; [8]
  IC50: 5 ± 0.62 µM
[6]
  anti-tumor activities: certain anti-tumor activities
